The values below come from PubChem BioAssay (NCI).

One may read the GI50 as the concentration giving 50% growth inhibition. Broadly, the TGI is the concentration at which net growth stops. Lower therefore signals greater sensitivity of the cells.

Assay in all cases: DTP human tumour cell line panel, 48 h
Assay [1] relates to OVCAR-5 ovarian.
Assay [2] has as its system HOP-92 NSCLC.
In assay [3] the test system is NCI-H460 lung.
The test system of assay [4] is HS 578T breast.
Assay [5] concerns SK-MEL-5 melanoma.
Assay [6] deals with T-47D breast.
Assay [7] relates to 786-0 renal.
The subject of assay [8] is SNB-75 CNS.
Assay [9] deals with DU-145 prostate.
Assay [10] has as its system UO-31 renal.

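Where inhibition never reached the appropriate level, the endpoint shown equals the highest concentration tested. Otherwise, values were interpolated linearly from a five-concentration, 48-hour dose response in 96-well plates. GI50 = concentration required for 50% inhibition of growth. At the TGI there is no net growth.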 Bounds are passed on as bounds.

For the compound `Cc1nc(NC(=O)COc2cccc(/C=C3\COc4ccccc4C3=O)c2)sc1C`, the GI50 was 1.94 µM in assay [1]; 1.69 µM in assay [2]; 3.19 µM in [3]; 2.72 µM in assay [4]; 1.86 µM in [5]; 2.9 µM in [6]. Also, the GI50 was 1.73 µM in assay [7], 5.49 µM in [8], 2.1 µM in assay [9] and 0.704 µM in assay [10]. Further, the total growth inhibition concentration (TGI) in assay [1] turned out to be 3.88 µM; in assay [2], 3.83 µM; in assay [3] it was 11.3 µM; in [4] it was 8.6 µM; in assay [5], 3.81 µM; in assay [6] it was 10.4 µM. Moreover, the TGI in assay [7] was 3.22 µM; in [8], 18.7 µM; in assay [9], 4.09 µM; in assay [10], 1.63 µM.
As for `Oc1ccc(Cl)cc1Cc1cc(Cl)cc(Cc2cc(Cl)ccc2O)c1O`, the TGI in assay [1] worked out at 12.2 µM; in assay [2] it was 5.94 µM; in assay [3] it was 4.96 µM; in [4], 7.71 µM; in assay [5] it was 2.56 µM; in [6] it was 7.56 µM. The total growth inhibition concentration (TGI) came to 11.3 µM in [7], 10.3 µM in assay [8], 13 µM in assay [9] and 10.3 µM in [10].
As to `O=Cc1ncc(-c2ccc(C(F)(F)F)cc2)c(NC2CCCCCC2)n1`, the GI50 in assay [1], in assay [2], in assay [3], in assay [4], in [5] and in [6] was over 10 µM throughout. For the same compound, the GI50 in assay [7], in assay [8], in [9] and in assay [10] was over 10 µM each time. For the same compound, the TGI in assay [1], in assay [2], in assay [3], in [4], in assay [5] and in assay [6] was over 10 µM in each case. The TGI in assay [7], in assay [8], in [9] and in [10] was over 10 µM each time.
Take `CN(C)c1cc2c(Nc3ccc4nc(Cc5ccccc5)[nH]c4c3)ncnc2cn1`: the GI50 is 16.6 µM in assay [1]; over 25 µM in assay [2]; 13.1 µM in assay [3]; over 17.6 µM in assay [4]; 8.99 µM in assay [5]; over 16.4 µM in assay [6]. The GI50 is 12.5 µM in [7], over 13.9 µM in assay [8], 12.1 µM in assay [9] and 12.2 µM in assay [10]. The total growth inhibition concentration (TGI) in assay [1] was over 25 µM; in assay [2], over 25 µM; in assay [3], over 25 µM; in [4], over 25 µM; in [5] it was over 16 µM; in assay [6] it was over 25 µM. In addition, the total growth inhibition concentration (TGI) was over 20.3 µM in assay [7], over 25 µM in [8], over 25 µM in [9] and over 25 µM in assay [10].
In the case of `COc1cc(C2=Nc3c/c(=C\c4c(O)[nH]c5ccc(Cl)cc45)ccc3=N2)cc(OC)c1OC`, the GI50 in assay [1] was 12 µM; in [2] it was 0.444 µM; in assay [3] it was 2.7 µM; in assay [4] it was 1.69 µM; in assay [5], 1.58 µM; in assay [6] it was 9.13 µM. Also, the GI50 is 2.89 µM in assay [7], 1.78 µM in assay [8], 2.34 µM in [9] and 2.96 µM in [10]. Moreover, the TGI in [1] is 38.8 µM; in [2], 6.35 µM; in assay [3], 8.65 µM; in assay [4], 5.86 µM; in [5] it was 3.55 µM; in [6], 37.3 µM. The TGI in [7] was found to be 9.91 µM; in [8], 10.6 µM; in [9], 5.19 µM; in assay [10], 16.1 µM.
For the compound `C[C@H]1O[C@@H](O[C@H]2[C@@H](O)C[C@H](O[C@H]3[C@@H](O)C[C@H](O[C@H]4CC[C@]5(C)C6C[C@@H](O)[C@]7(C)[C@@H](C8=CC(=O)OC8)CC[C@]7(O)C6CC[C@@H]5C4)O[C@@H]3C)O[C@@H]2C)C[C@H](O)[C@@H]1O` (stereo not given in full), the 50% growth inhibitory concentration (GI50) is 0.114 µM in assay [1]; 0.112 µM in [2]; 0.0197 µM in assay [3]; 0.0311 µM in [4]; 0.0478 µM in assay [5]; 0.0833 µM in [6]. Moreover, the 50% growth inhibitory concentration (GI50) in assay [7] was 0.06 µM; in assay [8] it was 0.08 µM; in [9], 0.0329 µM; in [10], 0.0836 µM. Besides, the TGI in assay [1] came out at 0.286 µM; in [2], 0.529 µM; in [3] it was 0.0748 µM; in assay [4], 4.3 µM; in assay [5] it was 0.122 µM; in assay [6], 0.252 µM. The TGI in [7] came to 0.16 µM; in [8], 0.221 µM; in assay [9], 0.0968 µM; in [10], 0.166 µM.
Take `O=C(/C=C\c1cccc([N+](=O)[O-])c1)c1ccccc1`: the GI50 in assay [1] was 3.92 µM; in assay [2], 2.04 µM; in assay [3], 7.54 µM; in [4], 5.97 µM; in assay [5], 6.97 µM; in [6] it was 2.33 µM. Further, the GI50 is 4.95 µM in assay [7], 9.82 µM in [8], 2.35 µM in assay [9] and 1.79 µM in assay [10]. The TGI in assay [1] is 18.7 µM; in [2], 5.12 µM; in [3], 28.5 µM; in assay [4] it was 61 µM; in assay [5], 20.2 µM; in assay [6], 6.1 µM. Moreover, the TGI was found to be 12.7 µM in [7], 30.5 µM in assay [8], 5.88 µM in [9] and 4.11 µM in [10].
Regarding `N#CC(NC12CC3CC(CC(C3)C1)C2)c1ccccc1` (stereo not given), the TGI in assay [1], in assay [2], in assay [3], in assay [4], in [5] and in [6] was over 100 µM throughout. The TGI in assay [7], in assay [8], in [9] and in assay [10] was over 100 µM each time.
Take `Cc1oncc1C(=O)Nc1ccc(C(F)(F)F)cc1`: the GI50 was over 100 µM in assay [1]; 6.17 µM in [2]; 24.8 µM in assay [3]; 54.5 µM in assay [4]; 29.3 µM in [5]; 94 µM in assay [6]. Besides, the GI50 in assay [7] is 54.5 µM; in assay [8], 23.5 µM; in [9] it was 56.1 µM; in assay [10], 12.6 µM. Besides, the TGI in assay [1] is over 100 µM; in assay [2], 46 µM; in assay [3], over 100 µM; in [4], over 100 µM; in [5], over 100 µM; in assay [6], over 100 µM. Besides, the concentration for total growth inhibition (TGI) in [7], in assay [8], in [9] and in assay [10] was over 100 µM in each case.
For `COC(=O)c1c2c(c[n+]([O-])c1C)C(=O)C(NCc1ccccc1)=CC2=O`, the GI50 is 1.2 µM in assay [1]; 1.04 µM in assay [2]; 0.425 µM in [3]; 2.4 µM in assay [4]; 0.175 µM in assay [5]; 0.327 µM in [6]. Moreover, the GI50 is 1.69 µM in [7], 1.76 µM in assay [8], 1.05 µM in assay [9] and 1.25 µM in assay [10]. The total growth inhibition concentration (TGI) in [1] was determined as 2.57 µM; in assay [2], 2.72 µM; in assay [3] it was 1.65 µM; in [4] it was 8.13 µM; in assay [5], 0.322 µM; in [6] it was 1.53 µM. The TGI was 3.8 µM in [7], 3.27 µM in assay [8], 2.25 µM in [9] and 2.58 µM in [10].
In the case of `NC(=O)c1cccc(N)c1`, the GI50 in [1], in assay [2], in assay [3], in assay [4], in assay [5] and in assay [6] was over 100 µM in each case. The GI50 was over 100 µM in [7], 74.6 µM in [8], over 100 µM in [9] and over 100 µM in [10]. The TGI in [1], in [2], in assay [3], in assay [4], in [5] and in assay [6] was over 100 µM throughout. In addition, the TGI in assay [7], in assay [8], in assay [9] and in assay [10] was over 100 µM throughout.
In the case of `CCOc1ccc(/C=N/Nc2cc(C)nc3ccc(Cl)cc23)cc1`, the GI50 in [1] is 1.97 µM; in assay [2], 2.1 µM; in [3] it was 2.06 µM; in assay [4] it was 2.15 µM; in [5] it was 1.72 µM; in assay [6] it was 1.94 µM. The GI50 was 1.57 µM in assay [7], 1.86 µM in assay [8], 1.82 µM in [9] and 1.63 µM in [10]. Also, the TGI in assay [1] worked out at 3.5 µM; in [2] it was 7.08 µM; in [3] it was 4.27 µM; in assay [4] it was 4.67 µM; in assay [5], 3.09 µM; in [6], 3.8 µM. Also, the concentration for total growth inhibition (TGI) in assay [7] is 3.03 µM; in assay [8], 3.64 µM; in [9] it was 3.38 µM; in assay [10], 2.98 µM.
With `COC(=O)C1=C(C(=O)Nc2cccnc2)C2OC1(C(Cc1ccccc1)Oc1ccccc1)C1OC21` (stereo not given), the GI50 is 4.1 µM in assay [1]; 1.46 µM in assay [2]; 16.4 µM in assay [3]; 18.6 µM in assay [4]; 15.6 µM in assay [5]; 2.02 µM in assay [6]. The GI50 is 1.69 µM in assay [7], 8.28 µM in assay [8], 1.77 µM in [9] and 1.24 µM in assay [10]. The TGI in [1] came out at 16.8 µM; in [2], 3 µM; in [3], 34.1 µM; in assay [4] it was 49.9 µM; in [5] it was 31.3 µM; in assay [6], 4.86 µM. For the same compound, the TGI in [7] is 3.33 µM; in assay [8], 21.1 µM; in [9], 3.27 µM; in assay [10] it was 2.49 µM.
On to `Clc1ccc(-c2nc(-c3c[nH]c4ncccc34)cs2)cc1`, for which the GI50 was over 100 µM in assay [1]; 0.0277 µM in assay [2]; over 100 µM in [3]; over 100 µM in assay [4]; over 100 µM in assay [5]; 9.41 µM in assay [6]. Further, the GI50 in assay [7], in [8], in assay [9] and in assay [10] was over 100 µM throughout. The concentration for total growth inhibition (TGI) in [1], in assay [2], in [3], in assay [4], in [5] and in assay [6] was over 100 µM in each case. The TGI in assay [7], in assay [8], in assay [9] and in assay [10] was over 100 µM throughout.
`S=c1cn[nH]c2ccc(Br)cc12`: the TGI in [1], in assay [2], in [3], in assay [4], in [5] and in [6] was over 100 µM each time. Moreover, the TGI in [7], in assay [8], in assay [9] and in assay [10] was over 100 µM each time.
For `Nc1nn(C(=O)Nc2ccc(Cc3ccccc3)cc2)c2ccc(Cl)cc12`, the GI50 in [1] is 22.7 µM; in assay [2], 13.4 µM; in assay [3], 0.0658 µM; in assay [4] it was 14.4 µM; in assay [5] it was 0.33 µM; in assay [6], 0.0957 µM. For the same compound, the GI50 in assay [7] is 4.59 µM; in assay [8], 15 µM; in [9], 11.7 µM; in assay [10], 5.9 µM. Moreover, the TGI in assay [1] was over 100 µM; in assay [2] it was 42 µM; in assay [3], 15.3 µM; in assay [4], 44.3 µM; in assay [5] it was 25.8 µM; in assay [6], 28.8 µM. The total growth inhibition concentration (TGI) in [7] was 28.7 µM; in [8], 35.2 µM; in assay [9], 33.8 µM; in assay [10], 82.7 µM.
